From patent US8691764B2, “Inhibitors of NF-κB activity” (The Research Foundation for the State University of New York, priority 2007, dated 2014)
Where no end group is shown, it is not given here.

Columns and labels:
annexin 1 = test: Induction of annexin 1 in BxPC-3 cells, Western blot of nuclear and cytoplasmic extracts; assay type: cell-based, human; conditions: for expression of annexin 1: 5 mM conventional ASA, 100 μM cortisone; for annexin 1 expression with conventional NSAIDs: 6 h, each at 1 mM
Experimental: The human pancreatic cancer cell line, BxPC-3, or the colon cancer cell line HT-29, both from ATCC (Manassas, Va.) were maintained and grown in RPMI 1640 or McCoy's 5A medium (Cellgro) supplemented with 10% fetal bovine serum (HyClone) and 1% penicillin/streptomycin (Cellgro) in a humidified incubator at 37° C. and 5% CO2.
The cell fractions were obtained as described by Andrews and Faller (N. C. Andrews and D. V. Faller, Nucleic Acids Res. 19:2499 (1991)) with modification. Briefly, the cells were pelleted after treatment and washed three times with PBS. The cell pellets were resuspended in ice cold buffer A (10 mM HEPES, pH 7.9, 10 mM KCl, 1.5 mM MgCI2, 0.5 mM DTT, 0.5 mM PMSF) with protease inhibitor cocktail (Sigma) and incubated on ice for 15 min with occasional mixing by gently tapping the tube. The cell lysates were centrifuged up to 5000 rpm for three times. The supernatants were collected as cytoplasmic extracts. Nuclear pellets were washed with buffer A and resuspended in buffer C (20 mM HEPES, pH 7.9, 450 mM NaCl, 1.5 mM MgCI2, 0.2 mM EDTA, 0.5 mM DTT, 0.5 mM PMSF, 25% Glycerol) with protease inhibitor cocktail (Sigma) and incubated on ice for 30 min with occasional mixing to extract nuclear proteins. Nuclear extracts were cleared by centrifugation (14,800 rpm for 10 min) and the supernatants were collected as nuclear extracts.
For Western blotting, the proteins from both cytoplasmic extracts and nuclear extracts were separated by SDS-polyacrylamide gel electrophoresis and transferred onto PVDF membranes (Millipore). The membranes were blocked in 5% nonfat dry milk-TBS-T (20 mM Tris-HCl, pH 7.5, 500 mM NaCl. 0.3% Tween 20) at room temperature (RT) for an hour and probed with anti-annexin 1, c-IAP-1, c-IAP-2, and TRAF-1 (Santa Cruz Biotechnology, Inc. CA), and anti-Bcl-2 antibodies (Cell Signaling Technology), in 5% nonfat dry milk-TBS-T at 4° C. overnight. The blots were washed three times with TBS-T for 5 min each wash and incubated with horseradish peroxidase-conjugated secondary antibody (Santa Cruz) in 5% nonfat dry milk-TBS-T at RT for an hour. After five washes with TBS-T, the blots were developed with the enhanced chemiluminescence system (ECL™ Western Blotting System, Amersham Biosciences) and exposed to x-ray film according to the manufacturer's instructions. Protein loading was normalized using anti-β-actin antibodies (Santa Cruz Biotechnology, Inc).

NF-κB [1] = molecular target: T1, NF-κB (Homo sapiens, UniProt P19838+Q04206); test: NF-κB activity ELISA (TransBinding NF-κB assay kit), BxPC-3 cells; assay type: cell-based; design: endogenous in cells; host or cells: BxPC-3; conditions: for NF-κB activity with peptides of annexin 1: BxPC-3 cells, 30 μM, 3 h
T1 sequence (Q04206 whole entry): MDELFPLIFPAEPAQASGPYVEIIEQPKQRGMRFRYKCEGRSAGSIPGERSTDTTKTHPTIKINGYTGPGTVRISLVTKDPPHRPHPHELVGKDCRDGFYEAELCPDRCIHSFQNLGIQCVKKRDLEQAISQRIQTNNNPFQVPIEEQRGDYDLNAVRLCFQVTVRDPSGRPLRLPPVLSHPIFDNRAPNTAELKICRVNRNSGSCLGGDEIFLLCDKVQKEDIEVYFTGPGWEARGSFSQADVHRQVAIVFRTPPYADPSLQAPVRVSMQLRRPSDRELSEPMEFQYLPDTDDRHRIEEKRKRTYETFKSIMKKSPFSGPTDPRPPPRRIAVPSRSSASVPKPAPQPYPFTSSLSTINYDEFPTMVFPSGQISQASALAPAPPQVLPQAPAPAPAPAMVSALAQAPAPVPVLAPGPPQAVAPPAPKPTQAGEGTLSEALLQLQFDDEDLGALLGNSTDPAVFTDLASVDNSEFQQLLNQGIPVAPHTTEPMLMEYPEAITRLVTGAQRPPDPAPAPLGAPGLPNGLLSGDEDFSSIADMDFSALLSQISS
T1 sequence (P19838 1-433 limits assumed): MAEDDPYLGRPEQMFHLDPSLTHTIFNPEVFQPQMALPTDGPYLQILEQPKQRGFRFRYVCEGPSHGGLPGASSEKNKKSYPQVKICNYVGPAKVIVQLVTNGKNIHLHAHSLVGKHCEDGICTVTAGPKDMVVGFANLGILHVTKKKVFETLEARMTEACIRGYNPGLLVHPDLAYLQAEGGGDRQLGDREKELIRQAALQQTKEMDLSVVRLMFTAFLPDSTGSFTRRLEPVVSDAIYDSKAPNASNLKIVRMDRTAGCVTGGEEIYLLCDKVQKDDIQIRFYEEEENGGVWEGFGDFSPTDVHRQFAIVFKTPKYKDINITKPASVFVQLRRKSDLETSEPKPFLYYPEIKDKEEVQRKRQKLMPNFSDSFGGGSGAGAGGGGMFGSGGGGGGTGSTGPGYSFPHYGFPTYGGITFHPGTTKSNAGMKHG
Experimental: (§1) NF-κB activity was measured in these cells using the TransBinding NF-κB assay kit and following the instructions of the manufacturer (Panomics). Briefly, nuclear extracts obtained as described above, were incubated for 30 min in an ELISA plate coated with NF-κB consensus DNA sequence to which p50 protein can bind. After binding, antibody against p50 was added and incubated for 1 hour, followed by HRP-conjugated antibody for 1 hour. Afterwards, luminol/enhancer solution and stable peroxide solution were added and chemoluminescence was detected using a luminometer (Bio-Rad).

SW480 tumor xenografts = test: SW480 human colon cancer xenograft in nude mice; assay type: in vivo, BALB/c nude mice; conditions: i.p. 40 μg once daily
Experimental: Female 6-week-old BALB/c nude mice were obtained from The Jackson Laboratory (Bar Harbor, Me.). The animals were housed in a climate- and light-controlled room. Food and water were allowed ad libitum. The SW480 human colon cancer cell line was used to establish xenografts in nude mice. 2×10^6 cells in 100 μl of PBS were injected subcutaneously (s.c.) into the upper portion of the left hind limb of the mice, where they grew as solid tumors. The size of the tumor was measured two times per week using a Venier caliper. The tumor volume was determined using the formula V=L×W(L+W/2)×0.56.
On the 7th day after inoculation, when the tumor size reached an average 240 mm^3, 18 mice were treated with QW-3 administered by i.p. injection of at a dose of 40 μg once daily. The control group (n=18) was administered the vehicle alone. The mice were sacrificed on day 12, and tumors were resected and stored in liquid nitrogen and formalin until further analysis.
Immunohistochemistry was performed on paraffin sections of the tumors. All sections were incubated at 95-100° C. in WCAP reagent (Surgipath) for 30 min, washed and then incubated in 10:1 Methanol:H2O2 for 10 min. Sections were then incubated in rabbit polyclonal PCNA (Santa Cruz, Calif.) or antibody detecting NF-κB activation (Chemicon) for 1 h after which immunoreactivity was detected with an Envision assay kit and DAB reagent (DakoCytomation). All sections were counterstained with haematoxylin and mounted. Negative controls included a non-specific antibody.

NF-κB [2] = molecular target: T1, NF-κB; test: NF-κB activity ELISA, SW480 cells; assay type: cell-based; design: endogenous in cells; host or cells: SW480
Experimental: as §1, with “In the same manner as for NO-ASA, BxPC-3 cells were treated for 6 h with different corticosteroid inflammatory drugs, each at 4 μM, and tested for their ability to induce annexin 1. […] NF-κB activity” for “NF-κB activity”
BxPC-3 or SW480 cells were treated with 30 μM of each of the peptides of annexin 1 for 3 h. NF-κB activity and apoptosis were measured in whole cell lysates using an ELISA assay as described in EXAMPLES 2 and 4. […] These peptides are Ac-Gln-Ala-Trp, as set forth in SEQ ID NO:1, the peptide Ac-Phe-Gln-Ala-Tip, as set forth in SEQ ID NO:2 and the peptide Ac-Phe-Leu-Lys-Gln-Ala-Trp, as set forth in SEQ ID NO:3. Other depicted acetylated peptides are Ac-Phe-Leu-Lys (SEQ ID NO:14), Ac-Lys-Gln-Ala-Trp (SEQ ID NO:15), and Ac-Val-Ser-Glu-Lys-Gln-Ala-Trp (SEQ ID NO:16).

[3] = system: SW480 human colon cancer cells; test: Apoptosis, Cell Death Detection ELISA, SW480 cells; assay type: cell-based
Experimental: Apoptosis was determined using the Cell Death Detection ELISA^PLUS assay kit according to the manufacturer's protocol (Roche, Indianapolis, Ind.). Briefly, the cells were treated with either NO-ASA or Dex for 3 h. Cells were harvested and washed three times with PBS. The cell pellet was resuspended with lysis buffer and incubated for 30 min at RT. Cell […] at 200×g for 10 min. The ELISA assay was performed using 20 μl cell lysate and 80 μl Immunoreagent (containing 72 μl Incubation Buffer, 4 μl Anti-histone-biotin Solution, and 4 μl Anti-DNA-POD Solution) per micro-plate well. The micro-plate was covered with an adhesive foil and incubated on a shaker under gentle shaking at 200 rpm for 2 h at RT. The solution in each well was removed thoroughly by tapping and the pellets were rinsed three times with 200 μl Incubation Buffer. […] The absorbance was measured at 405 nm using the SpectraMax micro-plate reader (Molecular Devices, Sunnyvale).
BxPC-3 or SW480 cells were treated with 30 μM of each of the peptides of annexin 1 for 3 h. NF-κB activity and apoptosis were measured in whole cell lysates using an ELISA assay as described in EXAMPLES 2 and 4. […]

[4] = cortisol=1; cited from earlier work

NF-κB activity with peptides of annexin 1 (NF-κB [1])	Compound	annexin 1 expression with conventional NSAIDs (annexin 1)	also measured
–	C[C@]12CCC(=O)C=C1CC[C@@H]1[C@@H]2C(=O)C[C@@]2(C)[C@H]1CC[C@]2(O)C(=O)CO [cortisone]	–	expression of annexin 1 (annexin 1): failed to induce
–	CN1C(C(=O)Nc2ccccn2)=C(O)c2ccccc2S1(=O)=O [piroxicam]	no effect	–
–	CC(C)Cc1ccc(C(C)C(=O)O)cc1 (stereo not drawn) [ibuprofen]	no effect	–
–	O=C(O)c1ccccc1O [salicylic acid]	no effect	–
–	CC(C(=O)O)c1ccc(-c2ccccc2)c(F)c1 (stereo not drawn) [flurbiprofen]	no effect	–
inhibited NF-κB activity	Ac-Phe-Leu-Lys-Gln-Ala-Trp (Ac-FLKQAW)	–	–
inhibited NF-κB activity	Ac-Ala-Met-Val-Ser-Glu-Phe-Leu-Lys-Gln-Ala-Trp (Ac-AMVSEFLKQAW) [Ac2-12, commercial peptide of annexin 1]	–	–
inhibited NF-κB activity	Ac-Gln-Ala-Trp [QW-3]	–	blood levels of IL-6 (SW480 tumor xenografts): decreased levels of IL-6; blood levels of IL-10 (SW480 tumor xenografts): increased the blood levels of IL-10; tumor growth (SW480 tumor xenografts): suppressed tumor growth; NF-κB activity in tumors (SW480 tumor xenografts; tumor sections): inhibited NF-κB activity; cell proliferation by expression of PCNA (immunohistochemistry) (SW480 tumor xenografts; tumor sections): inhibited cell proliferation; NF-κB activity (NF-κB [2]): inhibited NF-κB activity in a concentration-dependent manner; apoptosis [3]: enhanced SW480 cell apoptosis
–	CC(=O)Oc1ccccc1C(=O)O [conventional ASA, aspirin]	no effect	expression of annexin 1 (annexin 1): failed to induce; activity of NF-κB with weak anti-inflammatory drugs (NF-κB [1]; cells and concentration not given): do not inhibit
inhibited NF-κB activity	Ac-Phe-Gln-Ala-Trp (Ac-FQAW) [Ac-Phe-Gln-Ala-Tip]	–	–
inhibited NF-κB activity	Ac-AMVSEFKQAWFIENEEQQYVQTVK [Ac2-26]	–	–
–	C[C@]12CCC(=O)C=C1CC[C@@H]1[C@@H]2[C@@H](O)C[C@@]2(C)[C@H]1CC[C@]2(O)C(=O)CO [cortisol]	–	relative anti-inflammatory potency [4]: 1
–	C[C@]12C=CC(=O)C=C1CC[C@H]1[C@@H]3C[C@@H](O)[C@](O)(C(=O)CO)[C@@]3(C)C[C@H](O)[C@@]12F [triamincinolone]	–	relative anti-inflammatory potency [4]: 5
–	CC1=C(CC(=O)O)c2cc(F)ccc2/C1=C\c1ccc([S+](C)[O-])cc1 (stereo not drawn) [sulindac]	no effect	–
–	COc1ccc2c(c1)c(CC(=O)O)c(C)n2C(=O)c1ccc(Cl)cc1 [indomethacin]	no effect	–
